# Marks after values point to notes of the source that are not given here.
# Tested on: P. aeruginosa (Pseudomonas) biofilm
# Experiment: not given
# Details: neat IL
row,Molecule,anti-biofilm efficacy
1,choline malonate [LANL-5],effective

# Tested on: not listed separately
# Experiment: Determination of lipophilicity (octanol/water distribution by UV absorbance)
# Format: physicochemical
# Details: not given
# Protocol: A 250 mL volume of n-octanol was shaken with 100 mL of ddH2O and left overnight. […]
# The absorption of the octanol layer and water layers were measured and compared with the absorbance of the stock solutions. Measurements were repeated three times and the distribution coefficients were reported as the average. The percent of IL in octanol was calculated as the absorbance of the octanol layer after extraction divided by the absorbance of IL in octanol before extraction. The water/octanol distribution coefficient was calculated as the logarithm of the percent of IL in octanol divided by the percent of IL in water.
row,Molecule,partitioning into octanol
1,CCCCCCCC/C=C\CCCCCCCC(=O)O.CCCCCCCC/C=C\CCCCCCCC(=O)[O-].C[N+](C)(C)CCO,partitioned well into octanol
2,"CCCC[N+]1(C)CCCC1.O=S(=O)([N-]S(=O)(=O)C(F)(F)F)C(F)(F)F [LANL-1, 1-Butyl-1-methylpyrrolidinium (BMP)—bistriflimide (NTf2)]",partitioned poorly into octanol

# Same assay, conditions: after 1 min of agitation
row,Molecule,percent moving into the octanol layer [%]
1,CCCCCCCC/C=C\CCCCCCCC(=O)O.CCCCCCCC/C=C\CCCCCCCC(=O)[O-].C[N+](C)(C)CCO,95

# Same assay, conditions: after extraction with water, Table 3
row,Molecule,percent in octanol
1,CCCCCCCC/C=C\CCCCCCCC(=O)O.CCCCCCCC/C=C\CCCCCCCC(=O)[O-].C[N+](C)(C)CCO,95 +/− 3%
2,"CCCC[N+]1(C)CCCC1.O=S(=O)([N-]S(=O)(=O)C(F)(F)F)C(F)(F)F [LANL-1, 1-Butyl-1-methylpyrrolidinium (BMP)—bistriflimide (NTf2)]",20% +/− 7%

# Same assay, conditions: starting concentration of 0.2 M in octanol
row,Molecule,percentage in the water phase [%]
1,"CCCC[N+]1(C)CCCC1.O=S(=O)([N-]S(=O)(=O)C(F)(F)F)C(F)(F)F [LANL-1, 1-Butyl-1-methylpyrrolidinium (BMP)—bistriflimide (NTf2)]",51

# Same assay, conditions: starting concentration of 0.2 M in octanol; third phase
row,Molecule,percentage not incorporated in octanol or water [%]
1,"CCCC[N+]1(C)CCCC1.O=S(=O)([N-]S(=O)(=O)C(F)(F)F)C(F)(F)F [LANL-1, 1-Butyl-1-methylpyrrolidinium (BMP)—bistriflimide (NTf2)]",29

# Tested on: not listed separately
# Experiment: Density (volumetric flask and balance)
# Format: physicochemical
# Details: 25° C.
# Protocol: (§1) Determinations of conductivity were made on an ION450 benchtop meter (Radiometer Analytical) with a 2-pole electrode designed for use in viscous liquids (Radiometer Analytical CDC241-9) and calibrated with KCl. Conductivity was measured three times per sample on stirred 3 mL volumes of neat IL at 25° C. Density was measured three times per IL using a 1 mL volumetric flask and an analytical balance.
row,Molecule,density [g/mL]
1,CCCCCCCC/C=C\CCCCCCCC(=O)O.CCCCCCCC/C=C\CCCCCCCC(=O)[O-].C[N+](C)(C)CCO,0.98
2,"CCCC[N+]1(C)CCCC1.O=S(=O)([N-]S(=O)(=O)C(F)(F)F)C(F)(F)F [LANL-1, 1-Butyl-1-methylpyrrolidinium (BMP)—bistriflimide (NTf2)]",1.39
3,choline malonate [LANL-5],1.266

# Same assay, conditions: Table 5
row,Molecule,density [g/mL]
1,CCCCCCCC/C=C\CCCCCCCC(=O)O.CCCCCCCC/C=C\CCCCCCCC(=O)[O-].C[N+](C)(C)CCO,0.98
2,"CCCC[N+]1(C)CCCC1.O=S(=O)([N-]S(=O)(=O)C(F)(F)F)C(F)(F)F [LANL-1, 1-Butyl-1-methylpyrrolidinium (BMP)—bistriflimide (NTf2)]",1.39
3,choline malonate [LANL-5],1.27

# Same assay, conditions: text b173
row,Molecule,density [g/mL]
1,CCCCCCCC/C=C\CCCCCCCC(=O)O.CCCCCCCC/C=C\CCCCCCCC(=O)[O-].C[N+](C)(C)CCO,0.98
2,choline malonate [LANL-5],1.27

# Tested on: S. enterica (Salmonella) biofilm
# Experiment: not given
# Details: neat IL
row,Molecule,anti-biofilm efficacy
1,choline malonate [LANL-5],effective

# Tested on: not listed separately
# Experiment: Conductivity of neat IL
# Format: physicochemical
# Details: 25° C.
# Protocol: as §1
row,Molecule,conductivity [mS/cm]
1,CCCCCCCC/C=C\CCCCCCCC(=O)O.CCCCCCCC/C=C\CCCCCCCC(=O)[O-].C[N+](C)(C)CCO,0.087
2,"CCCC[N+]1(C)CCCC1.O=S(=O)([N-]S(=O)(=O)C(F)(F)F)C(F)(F)F [LANL-1, 1-Butyl-1-methylpyrrolidinium (BMP)—bistriflimide (NTf2)]",1.99
3,choline malonate [LANL-5],0.429

# Same assay, conditions: Table 5
row,Molecule,conductivity
1,CCCCCCCC/C=C\CCCCCCCC(=O)O.CCCCCCCC/C=C\CCCCCCCC(=O)[O-].C[N+](C)(C)CCO,0.0871^b mS/cm
2,"CCCC[N+]1(C)CCCC1.O=S(=O)([N-]S(=O)(=O)C(F)(F)F)C(F)(F)F [LANL-1, 1-Butyl-1-methylpyrrolidinium (BMP)—bistriflimide (NTf2)]",1.99 mS/cm
3,choline malonate [LANL-5],0.429 mS/cm

# Tested on: not listed separately
# Experiment: Viscosity (Viscolab 3000 viscometer)
# Format: physicochemical
# Details: 25° C.
# Protocol: Viscosity was measured on 1 mL samples with a Viscolab 3000 viscometer (Cambridge Viscosity, Medford, MA). […] Low-temperature differential scanning calorimetry (DSC) was performed on a DSC882e instrument (Mettler-Toledo Inc., Columbus, Ohio) under N2 atmosphere over two complete scans of a temperature range of −60 to 120° C. with a ramp rate of 10° C. per minute and a sample size of 18-21 mg in an aluminum crucible.
row,Molecule,viscosity [cP]
1,CCCCCCCC/C=C\CCCCCCCC(=O)O.CCCCCCCC/C=C\CCCCCCCC(=O)[O-].C[N+](C)(C)CCO,880
2,"CCCC[N+]1(C)CCCC1.O=S(=O)([N-]S(=O)(=O)C(F)(F)F)C(F)(F)F [LANL-1, 1-Butyl-1-methylpyrrolidinium (BMP)—bistriflimide (NTf2)]",72.7
3,choline malonate [LANL-5],920

# Same assay, conditions: Table 5
row,Molecule,viscosity
1,CCCCCCCC/C=C\CCCCCCCC(=O)O.CCCCCCCC/C=C\CCCCCCCC(=O)[O-].C[N+](C)(C)CCO,162.3^b cP
2,"CCCC[N+]1(C)CCCC1.O=S(=O)([N-]S(=O)(=O)C(F)(F)F)C(F)(F)F [LANL-1, 1-Butyl-1-methylpyrrolidinium (BMP)—bistriflimide (NTf2)]",72.72 cP
3,choline malonate [LANL-5],920.1 cP

# Same assay, conditions: text b171
row,Molecule,viscosity [cP]
1,CCCCCCCC/C=C\CCCCCCCC(=O)O.CCCCCCCC/C=C\CCCCCCCC(=O)[O-].C[N+](C)(C)CCO,162

# Tested on: Normal human bronchial epithelial (NHBE) cells
# Experiment: WST-1 proliferation assay, 24 h exposure to diluted ILs
# Details: not given
# Protocol: Normal human bronchial epithelial (NHBE) cells were purchased (Lonza, Walkersville, MD) and cultured using bronchial epithelial cell growth media (BEGM, Clonetics Bullet Kit, Lonza, Walkersville, MD) on 100 mm tissue culture treated Petri dishes (Santa Cruz Biotechnologies, Santa Cruz, CA) coated with 50 μg/mL type I rat tail collagen (BD Biosciences, Bedford, MA). Cells were stored in an incubator with a humidified atmosphere at 37° C. and 5% CO2. Cells were fed two times weekly and passaged via trypsinization. Experimentation was performed in triplicate on cells harvested from passages 3 to 7.
# NHBE cells were plated in 96-well tissue culture plates at a concentration of 1.5×10^4 cells/well in a volume of 200 μL and allowed to acclimate overnight. On the day of experimentation, treatment plates were prepared using stock ionic liquid diluted in BEGM and then serially diluted 3-fold for a total of 7 concentrations. The 96-well plates containing cells were then aspirated and the treatments (150 μL/well) were carefully transferred from the prep plate to the cells. Cells were exposed to the ionic liquids for 24 hours. Two hours prior to the end of the exposure time, positive control cell wells were aspirated, and a solution of 1% Triton-100 (150 μL/well) was added.
# To assess cellular proliferation, water-soluble tetrazolium (WST-1) reagent (Clontech, Mountain View, CA) was added directly to cells, at a 1:10 dilution of the remaining media volume (7.5 μL of WST-1 reagent was added per 75 μL remaining cell culture media). NHBE cells exposed to media only and 1% Triton in BEGM were included as controls. Ionic liquid controls at the highest concentrations tested were included in wells without cells to rule out ionic liquid/assay reagent interference.
row,Molecule,toxicity to human primary cells
1,CCCCCCCC/C=C\CCCCCCCC(=O)O.CCCCCCCC/C=C\CCCCCCCC(=O)[O-].C[N+](C)(C)CCO,very toxic
2,"CCCC[N+]1(C)CCCC1.O=S(=O)([N-]S(=O)(=O)C(F)(F)F)C(F)(F)F [LANL-1, 1-Butyl-1-methylpyrrolidinium (BMP)—bistriflimide (NTf2)]",low toxicity

# Same assay, conditions: NHBE cells, text b165
row,Molecule,IC50 [µM]
1,CCCCCCCC/C=C\CCCCCCCC(=O)O.CCCCCCCC/C=C\CCCCCCCC(=O)[O-].C[N+](C)(C)CCO,34

# Same assay, conditions: read-out: IC50 at 24 h; WST, NHBE cells, 24 h; lower limits where solubility precluded IC50
row,Molecule,IC50 [µM]
1,"CCCC[N+]1(C)CCCC1.O=S(=O)([N-]S(=O)(=O)C(F)(F)F)C(F)(F)F [LANL-1, 1-Butyl-1-methylpyrrolidinium (BMP)—bistriflimide (NTf2)]",> 2000

# Tested on: not listed separately
# Experiment: Calculations of molarity and ionic strength
# Format: physicochemical
# Details: neat IL, Table 5
Molecule,ionic strength [M],molarity [M]
CCCCCCCC/C=C\CCCCCCCC(=O)O.CCCCCCCC/C=C\CCCCCCCC(=O)[O-].C[N+](C)(C)CCO,1.47,1.47
"CCCC[N+]1(C)CCCC1.O=S(=O)([N-]S(=O)(=O)C(F)(F)F)C(F)(F)F [LANL-1, 1-Butyl-1-methylpyrrolidinium (BMP)—bistriflimide (NTf2)]",3.28,3.28
choline malonate [LANL-5],5.20,5.20
